According to ChEMBL document CHEMBL5500371, “Arginine and tryptophan-rich dendritic antimicrobial peptides that disrupt membranes for bacterial infection in vivo” (Eur J Med Chem, 2024):
The source made the active and inactive calls. The calls are words filed in the database; no cut-off is given here. Where a SMILES comes first, the peptide text is derived from it. Side-chain parts run from the residue outwards.

Legend:
Staphylococcus aureus [1] = assay: Antibacterial activity against Staphylococcus aureus ATCC 25923 assessed as inhibition of bacterial growth incubated for 20 hrs in presence of KCl by broth microdilution method (reference value: 8 microM); format: functional
Escherichia coli [2] = assay: […] activity against Escherichia coli ATCC 25922 infected in male BALB/c pulmonary infection model assessed as reduction in bacterial colonies at 5 to 10 mg/kg, ip administered at 3 and 12 hrs post infection and measured 24 hrs post infection; format: functional, organism-based; settings: dose 5-10 mg/kg, time 12-21 hrs
Escherichia coli [3] = assay: Antibacterial activity against Escherichia coli ATCC 25922 assessed as inhibition of bacterial growth incubated for 20 hrs in presence of FeCl3 by broth microdilution method (reference value: 8 microM); format: functional
Staphylococcus aureus [4] = assay: Synergistic antibacterial activity against gentamicin resistant Staphylococcus aureus ATCC 25923 assessed as fractional inhibitory concentration index at 0.25 to 4 times MIC incubated for 20 hrs in presence of gentamicin by checkerboard assay; format: functional
Escherichia coli [5] = assay: Antibacterial activity against Escherichia coli ATCC 25922 assessed as inhibition of bacterial growth incubated for 20 hrs in presence of NaCl by broth microdilution method (reference value: 8 microM); format: functional
[6] = Systemic toxicity in male BALB/c mouse assessed as lung inflammatory cell infiltration at 105.41 mg/kg, ip administered as single dose by H and E staining based analysis; format: organism-based; settings: in vivo
[7] = Systemic toxicity in male BALB/c mouse assessed as renal cell necrosis at 105.41 mg/kg, ip administered as single dose by H and E staining based analysis; format: organism-based; settings: in vivo
[8] = Systemic toxicity in male BALB/c mouse assessed as hepatocyte hemorrhage at 105.41 mg/kg, ip administered as single dose by H and E staining based analysis; format: organism-based; settings: hepatocytes
Escherichia coli [9] = assay: Antibacterial activity against Escherichia coli ATCC 25922 assessed as inhibition of bacterial growth incubated for 20 hrs in presence of ZnCl2 by broth microdilution method (reference value: 8 microM); format: functional
Staphylococcus aureus [10] = assay: Additive antibacterial activity against rifampicin resistant Staphylococcus aureus ATCC 25923 assessed as fractional inhibitory concentration index at 0.25 to 4 times MIC incubated for 20 hrs in presence of rifampicin by checkerboard assay; format: functional
Staphylococcus aureus [11] = assay: Antibacterial activity against Staphylococcus aureus ATCC 25923 assessed as inhibition of bacterial growth upto 200 ug/ml pretreated with trypsin for 6 hrs and measured after 18 hrs by absorbance based method; format: functional, organism-based; settings: dose <= 200.0 µg/ml, time 24.0 hrs
Escherichia coli [12] = assay: Additive antibacterial activity against Escherichia coli ATCC 25922 assessed as fractional inhibitory concentration index at 0.25 to 4 times MIC incubated for 20 hrs in presence of rifampicin by checkerboard assay; format: functional
[13] = Systemic toxicity in male BALB/c mouse assessed as lung inflammatory cell infiltration at 109.31 mg/kg, ip administered as single dose by H and E staining based analysis; format: organism-based; settings: in vivo
Escherichia coli [14] = assay: Additive antibacterial activity against rifampicin resistant Escherichia coli ATCC 25922 assessed as fractional inhibitory concentration index at 0.25 to 4 times MIC incubated for 20 hrs in presence of rifampicin by checkerboard assay; format: functional
Escherichia coli [15] = assay: […] activity against Escherichia coli ATCC 25922 infected in male BALB/c pulmonary infection model assessed as reduction in liver bleeding at 10 mg/kg, ip administered at 3 and 12 hrs post infection and measured 24 hrs post infection by H and E staining based analysis; format: functional, organism-based; settings: time 12-21 hrs
Escherichia coli [16] = assay: […] activity against Escherichia coli ATCC 25922 infected in male BALB/c pulmonary infection model assessed as reduction in inflammatory cell infiltration at 10 mg/kg, ip administered at 3 and 12 hrs post infection and measured 24 hrs post infection by H and E staining based analysis; format: functional, organism-based; settings: time 12-21 hrs
Escherichia coli [17] = assay: Synergistic antibacterial activity against rifampicin resistant Escherichia coli ATCC 25922 assessed as fractional inhibitory concentration index at 0.25 to 4 times MIC incubated for 20 hrs in presence of rifampicin by checkerboard assay; format: functional, organism-based
Escherichia coli [18] = assay: Bactericidal activity against Escherichia coli ATCC 25922 assessed as elimination of bacteria at 2 times MIC measured after 1 hrs by time kill assay; format: functional, organism-based
Escherichia coli [19] = assay: […] activity against Escherichia coli ATCC 25922 infected in male BALB/c pulmonary infection model assessed as reduction in lung inflammation at 10 mg/kg, ip administered at 3 and 12 hrs post infection and measured 24 hrs post infection by H and E staining based analysis; format: functional, organism-based; settings: time 12-21 hrs
Cell membrane [20] = assay: Induction of cell membrane damage in Escherichia coli assessed as PI uptake at 2 times MIC measured after 2 hrs by PI dye based flow cytometry analysis (reference value: 16.5%); format: cell membranes
Cell membrane [21] = assay: Induction of cytoplasmic membrane depolarization in Staphylococcus aureus assessed as increase in fluorescence intensity at 0.5 to 4 times MIC measured upto 13 mins by DISC3-5 dye based fluorescence analysis
Escherichia coli [22] = assay: Synergistic antibacterial activity against Escherichia coli ATCC 25922 assessed as fractional inhibitory concentration index at 0.25 to 4 times MIC incubated for 20 hrs in presence of vancomycin by checkerboard assay; format: functional, organism-based

Compound: N=C(N)NCCC[C@H](NC(=O)[C@H](CCCNC(=N)N)NC(=O)[C@H](CCCNC(=N)N)NC(=O)[C@@H](N)CCCNC(=N)N)C(=O)N[C@@H](CCCCN)C(=O)N[C@@H](Cc1c[nH]c2ccccc12)C(=O)N[C@@H](Cc1c[nH]c2ccccc12)C(=O)N[C@@H](Cc1c[nH]c2ccccc12)C(=O)N[C@@H](Cc1c[nH]c2ccccc12)C(N)=O
- MIC (Staphylococcus aureus [1]): 8 µM
- Activity (Escherichia coli [2]): Active
- MIC (Escherichia coli [3]): 16 µM
- fractional inhibitory concentration index (FICI) (Staphylococcus aureus [4]): 0.5
- MIC (Escherichia coli [5]): 16 µM
- Activity [6]: Non-Toxic
- Activity [7]: Non-Toxic
- Activity [8]: Non-Toxic
- MIC (Escherichia coli [9]): 8 µM

Compound: N=C(N)NCCC[C@H](NC(=O)[C@@H](N)CCCNC(=N)N)C(=O)NCCCC[C@H](NC(=O)[C@H](CCCNC(=N)N)NC(=O)[C@@H](N)CCCNC(=N)N)C(=O)N[C@@H](Cc1c[nH]c2ccccc12)C(=O)N[C@@H](Cc1c[nH]c2ccccc12)C(=O)N[C@@H](Cc1c[nH]c2ccccc12)C(=O)N[C@@H](Cc1c[nH]c2ccccc12)C(N)=O (H-RRK([Arg-Arg])WWWW-NH2)
- fractional inhibitory concentration index (FICI) (Staphylococcus aureus [10]): 0.563
- Activity (Staphylococcus aureus [11]): Active
- fractional inhibitory concentration index (FICI) (Escherichia coli [12]): 0.563
- Activity [13]: Non-Toxic
- fractional inhibitory concentration index (FICI) (Escherichia coli [14]): 0.563

Compound: POLYMYXIN B
- Activity (Escherichia coli [15]): inactive
- Activity (Escherichia coli [16]): inactive
- fractional inhibitory concentration index (FICI) (Escherichia coli [17]): 0.313
- Activity (Escherichia coli [18]): 100%
- Activity (Escherichia coli [19]): inactive
- Activity (Cell membrane [20]): 46.8%
- Activity (Cell membrane [21]): inactive
- fractional inhibitory concentration index (FICI) (Escherichia coli [22]): 0.313
